Assay results taken from patent US7674818B2, “Aryl, aryloxy, alkyloxy substituted 1H-indol-3-yl glyoxylic acid derivatives as inhibitors of plasminogen activator inhibitor-1 (PAI-1)” (Wyeth LLC, priority 2002, dated 2010).

Columns and labels:
[1] = biological target: T1, recombinant human plasminogen activator inhibitor-1 (Homo sapiens, UniProt P05121); experiment: Primary screen for the PAI-1 inhibition (residual tPA activity, Spectrozyme-tPA chromogenic substrate); type: biochemical; conditions: pH 6.6 buffer, 140 nM PAI-1, 70 nM tPA; for Inhibition (%) (100 uM): test compound 100 uM (cell annotated "(100 uM)" instead of 25 uM); for inhibition at 25 µM / Inhibition @25 uM (%): test compound 25 uM
T1 construct: purchased Molecular Innovations, Royal Oak, Mich
T1 sequence (P05121 24-402): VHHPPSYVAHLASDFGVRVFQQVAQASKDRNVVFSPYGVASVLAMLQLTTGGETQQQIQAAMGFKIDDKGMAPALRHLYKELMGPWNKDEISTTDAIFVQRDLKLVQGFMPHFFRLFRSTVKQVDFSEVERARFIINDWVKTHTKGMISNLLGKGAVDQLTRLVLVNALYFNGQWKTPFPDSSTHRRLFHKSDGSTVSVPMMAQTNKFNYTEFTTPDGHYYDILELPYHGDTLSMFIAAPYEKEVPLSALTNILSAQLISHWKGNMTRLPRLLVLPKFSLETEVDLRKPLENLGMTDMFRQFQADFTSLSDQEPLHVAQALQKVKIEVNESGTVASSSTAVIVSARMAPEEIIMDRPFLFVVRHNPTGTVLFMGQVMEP
Protocol: Primary Screen for the PAI-1 Inhibition
Test compounds were dissolved in DMSO at a final concentration of 10 mM, then diluted 100× in physiologic buffer. The inhibitory assay was initiated by the addition of the test compound (1-100 μM final concentration, maximum DMSO concentration of 0.2%) in a pH 6.6 buffer containing 140 nM recombinant human plasminogen activator inhibitor-1 (Molecular Innovations, Royal Oak, Mich.). Following a 1 hour incubation at room temperature, 70 nM of recombinant human tissue plasminogen activator (tPA) was added, and the combination of the test compound, PAI-1 and tPA was incubated for an additional 30 minutes. Following the second incubation, Spectrozyme-tPA (American Diagnostica, Greenwich, Conn.), a chromogenic substrate for tPA, was added and absorbance read at 405 nm at 0 and 60 minutes. Relative PAI-1 inhibition was equal to the residual tPA activity in the presence of the test compound and PAI-1. Control treatments included the complete inhibition of tPA by PAI-1 at the molar ratio employed (2:1), and the absence of any effect of the test compound on tPA alone.

[2] = biological target: human PAI-1 (Homo sapiens, UniProt P05121); experiment: Assay for determining IC50 of inhibition of PAI-1 (active PAI-1 bound to tPA-coated plate, 33B8 antibody detection); type: biochemical; conditions: human PAI-1 50 ng/ml, pH 7.5, tPA-coated plate
Chain of human PAI-1 (P05121 24-402): as above
Protocol: Assay for Determining IC50 OF Inhibition of PAI-1
This assay was based upon the non-SDS dissociable interaction between tPA and active PAI-1. Assay plates were initially coated with human tPA (10 μg/ml). The test compounds were dissolved in DMSO at 10 mM, then diluted with physiologic buffer (pH 7.5) to a final concentration of 1-50 μM. The test compounds were incubated with human PAI-1 (50 ng/ml) for 15 minutes at room temperature. The tPA-coated plate was washed with a solution of 0.05% Tween 20 and 0.1% BSA, then the plate is blocked with a solution of 3% BSA. An aliquot of the test compound/PAI-1 solution was then added to the tPA-coated plate, incubated at room temperature for 1 hour, and washed. Active PAI-1 bound to the plate was assessed by adding an aliquot of a 1:1000 dilution of the 33B8 monoclonal antibody against human PAI-1, and incubating the plate at room temperature for 1 hour (Molecular Innovations, Royal Oak, Mich.). The plate was again washed, and a solution of goat anti-mouse IgG-alkaline phosphatase conjugate is added at a 1:50,000 dilution in goat serum. The plate was incubated 30 minutes at room temperature, washed, and a solution of alkaline phosphatase substrate was added. The plate was incubated 45 minutes at room temperature, and color development was determined at OD405 nm. The quantitation of active PAI-1 bound to tPA at varying concentrations of the test compound was used to determine the IC50. Results were analyzed using a logarithmic best-fit equation. The assay sensitivity was 5 ng/ml of human PAI-1 as determined from a standard curve ranging from 0-100 ng/ml.

Row | inhibition at 25 µM [1] [%] | Molecule | Inhibition (%) (100 uM) [1] | other results
1 | 66 | O=C(O)C(=O)c1cn(-c2ccc(OCc3c(F)c(F)c(C(F)(F)F)c(F)c3F)cc2)c2ccccc12 [Example 11, {1-[4-(2,3,5,6-tetrafluoro-4-trifluoromethylbenzyloxy)phenyl]1H-indol-3-yl}(oxo)acetic acid] |  | 
2 | 39 | O=C(O)C(=O)c1cn(-c2ccc(OCc3cc(Cl)nc(Cl)c3)cc2)c2ccccc12 [Example 13, {1-[4-(2,6-Dichloropyridin-4-ylmethoxy)phenyl]1H-indol-3-yl}(oxo)acetic acid] |  | 
3 | 5 | Cc1ccc2c(c1)c(C(=O)C(=O)O)cn2-c1ccc(OCc2cc(Cl)nc(Cl)c2)cc1 [Example 15, {1-[4-(2,6-dichloropyridin-4-ylmethoxy)phenyl]-5-methyl-1H-indol-3-yl}(oxo)acetic acid] |  | 
4 | 75 | O=C(O)C(=O)c1cn(-c2cccc(OCc3c(F)c(F)c(C(F)(F)F)c(F)c3F)c2)c2ccc(Cl)cc12 [Example 16, {5-Chloro-1-[3-(2,3,5,6-tetrafluoro-4-trifluoromethylbenzyloxy)phenyl]1H-indol-3-yl}(oxo)acetic acid] |  | IC50 [2]: > 25 µM
5 | 45 | O=C(O)C(=O)c1cn(-c2cccc(OCc3ccc(-c4csnn4)cc3)c2)c2ccc(Cl)cc12 [Example 18, {5-Chloro-1-[3-(4-[1,2,3]thiadiazol-4-ylbenzyloxy)phenyl]-1H-indol-3-yl}(oxo)acetic acid] |  | 
6 | 46 | O=C(O)C(=O)c1cn(-c2cccc(OCc3cc(Cl)nc(Cl)c3)c2)c2ccc(Cl)cc12 [Example 19, {5-Chloro-1-[3-(2,6-dichloropyridin-4-ylmethoxy)phenyl]-1H-indol-3-yl}(oxo)acetic acid] |  | 
7 | 56 | O=C(O)C(=O)c1cn(-c2ccc(OC(F)(F)F)cc2)c2ccc(-c3ccc(OC(F)(F)F)cc3)cc12 [Example 20, [1,5-Bis-(4-trifluoromethoxy-phenyl)-1H-indol-3-yl]-oxo-acetic acid] |  | IC50 [2]: > 25 µM
8 | 52 | O=C(O)C(=O)c1cn(Cc2ccccc2)c2ccc(Oc3ccc(C(F)(F)F)cc3Cl)cc12 [Example 23, [1-Benzyl-5-(2-chloro-4-trifluoromethyl-phenoxy)-1H-indol-3-yl](oxo)acetic acid] |  | melting point: 152 to 154 °C; IC50 [2]: 12.3 µM

Continued, molecule first:

Row | Molecule | inhibition at 25 µM [1] [%] | Inhibition (%) (100 uM) [1] | other results
9 | 5-[3-(5-Chloro-3-carboxy(oxo)methyl-1H-indol-1-yl)phenoxymethyl]furan-2-carboxylic acid ethyl ester [Example 17] |  | 49 | 
10 | N#Cc1ccc(COc2ccc(-n3cc(C(=O)C(=O)O)c4ccccc43)cc2)cc1 [Example 1, (1-{4-[(4-Cyanobenzyl)oxy]phenyl}-1H-indol-3-yl)(oxo)acetic acid] | 23 |  | 
11 | COc1cccc(COc2ccc(-n3cc(C(=O)C(=O)O)c4ccccc43)cc2)c1 [Example 2, {1-[4-(3-Methoxybenzyloxy)phenyl]-1H-indol-3-yl}(oxo)acetic acid] | 43 |  | 
12 | N#Cc1ccc(COc2ccc(-n3cc(C(=O)C(=O)O)c4cc(F)ccc43)cc2)cc1 [Example 4, {1-[4-(4-Cyanobenzyloxy)phenyl]-5-fluoro-1H-indol-3-yl}(oxo)acetic acid] |  | 40 | 
13 | COc1cc(COc2ccc(-n3cc(C(=O)C(=O)O)c4cc(F)ccc43)cc2)cc(OC)c1 [Example 5, {1-[4-(3,5-Dimethoxybenzyloxy)phenyl]-5-fluoro-1H-indol-3-yl}(oxo)acetic acid] | 26 |  | 
14 | Cc1ccc2c(c1)c(C(=O)C(=O)O)cn2-c1ccc(OCc2cccc(Cl)c2)cc1 [Example 6, {1-[4-(3-Chlorobenzyloxy)phenyl]-5-methyl-1H-indol-3-yl}(oxo)acetic acid] | 54 |  | IC50 [2]: > 25 µM
15 | Cc1ccc2c(c1)c(C(=O)C(=O)O)cn2-c1ccc(OCc2ccc(C(C)(C)C)cc2)cc1 [Example 7, {1-[4-(4-tert-Butylbenzyloxy)phenyl]-5-methyl-1H-indol-3-yl}(oxo)acetic acid] | 62 |  | 
16 | Cc1ccc2c(c1)c(C(=O)C(=O)O)cn2-c1ccc(OCc2ccc(Cl)cc2Cl)cc1 [Example 8, {1-[4-(2,4-Dichlorobenzyloxy)phenyl]-5-methyl-1H-indol-3-yl}(oxo)acetic acid] |  | 34 | 
17 | N#Cc1ccc(COc2cccc(-n3cc(C(=O)C(=O)O)c4cc(Cl)ccc43)c2)cc1 [Example 9, {5-Chloro-1-[3-(4-cyanobenzyloxy)phenyl]-1H-indol-3-yl}(oxo)acetic acid] | 44 |  | 
18 | COc1cc(COc2cccc(-n3cc(C(=O)C(=O)O)c4cc(Cl)ccc43)c2)cc(OC)c1 [Example 10, {5-Chloro-1-[3-(3,5-dimethoxybenzyloxy)phenyl]-1H-indol-3-yl}(oxo)acetic acid] | 1 |  | 
19 | O=C(O)C(=O)c1cn(-c2ccc(OCc3ccc(-c4csnn4)cc3)cc2)c2ccccc12 [Example 12, {1-[4-(4-[1,2,3]thiadiazol-4-ylbenzyloxy)phenyl]-1H-indol-3-yl}(oxo)acetic acid] |  | 32 | 
20 | CCOC(=O)c1ccc(COc2ccc(-n3cc(C(=O)C(=O)O)c4cc(F)ccc43)cc2)o1 [Example 14, 5-[4-(5-Fluoro-3-carboxy(oxo)methyl-1H-indol-1-yl)phenoxymethyl]furan-2-carboxylic acid ethyl ester] |  |  | Inhibition @25 uM (%) [1]: 43%
21 | O=C(O)C(=O)c1cn(Cc2ccc(F)cc2)c2ccc(OCCc3ccc(F)cc3)cc12 [Example 21] | 6 |  | melting point: 171 to 173 °C
22 | O=C(O)C(=O)c1cn(Cc2ccccc2)c2ccc(OCc3ccccc3)cc12 [Example 22, (1-Benzyl-5-benzyloxy-1H-indol-3-yl)-oxo-acetic acid] | 13 |  | 
23 | C=CCOc1ccc2c(c1)c(C(=O)C(=O)O)cn2CC1CCC1 [Example 24, (5-Allyloxy-1-cyclobutylmethyl-1H-indol-3-yl)-oxo-acetic acid] |  | 13 | 
24 | C=CCOc1ccc2c(c1)c(C(=O)C(=O)O)cn2CCc1ccccc1 [Example 25, (5-Allyloxy-1-phenethyl-1H-indol-3-yl)-oxo-acetic acid] |  | 8 | 
25 | C=CCOc1ccc2c(c1)c(C(=O)C(=O)O)cn2Cc1ccc2c(c1)OCO2 [Example 26, (5-Allyloxy-1-benzo[1,3]dioxol-5-ylmethyl-1H-indol-3-yl)-oxo-acetic acid] |  | 8 | 
26 | C=CCOc1ccc2c(c1)c(C(=O)C(=O)O)cn2CCc1ccc(OC)cc1 [Example 27, {5-Allyloxy-1-[2-(4-methoxy-phenyl)-ethyl]-1H-indol-3-yl}-oxo-acetic acid] |  | 16 | 
27 | C=CCOc1ccc2c(c1)c(C(=O)C(=O)O)cn2CCc1cccc2ccccc12 [Example 28, [5-Allyloxy-1-(2-naphthalen-1-yl-ethyl)-1H-indol-3-yl]-oxo-acetic acid] | 12 |  | 
28 | C=CCOc1ccc2c(c1)c(C(=O)C(=O)O)cn2CCc1cccc(C(F)(F)F)c1 [Example 29, {5-Allyloxy-1-[2-(3-trifluoromethylphenyl)-ethyl]-1H-indol-3-yl}-oxo-acetic acid] |  | 29 | 
29 | C=CCOc1ccc2c(c1)c(C(=O)C(=O)O)cn2CCc1ccc(Br)cc1 [Example 30, {5-Allyloxy-1-[2-(4-bromophenyl)-ethyl]-1H-indol-3-yl}-oxo-acetic acid] | 29 |  | 
30 | {1-[4-(3-Chlorobenzyloxy) phenyl]-1H-indol-3-yl}(oxo)acetic acid [Example 3] |  |  | IC50 [2]: > 25 µM; Inhibition @25 uM (%) [1]: 78%
